This is an account of results in patent publication US20190337971A1, “PANTETHEINE DERIVATIVES FOR THE TREATMENT OF NEUROLOGIC DISORDERS” (Retrophin, Inc., priority 2016, published 2019).

SMILES strings stand for the structures. Like-named read-outs stand apart in the source and are kept apart here.

One data set has as its system PANK2−/− IMR32 cells. Nature of the data set: Coenzyme A assay in PANK2 silenced cells (LC-MS quantification of free CoA). It is filed as cell-based, human. To be noted: Homo sapiens, IMR-32; compound concentration 50 uM; fold increase in CoA levels relative to controls; treated twice, 24 h + 24 h.
The nature of data set [1]: Stability of compounds in mouse hepatocytes. Format: in vitro ADME. To be noted: cryopreserved mouse hepatocytes in suspension, 37° C., 0-240 min. The method, then: Stability in hepatocytes for select compounds disclosed in the application was evaluated in two species (mouse and human) according to the following procedure. Compounds and positive control samples were dissolved in 100% DMSO at 5 mM. Cryopreserved hepatocytes were thawed and resuspended in Hepatocyte Basal Medium (HBM-Lonza CC-3199) supplemented with CC-4182 (complete hepatocyte culture medium). Test compounds were diluted into cell suspension (1 million cells/ml) from the stock solutions to have a test compound concentration of 5 μM (0.1% DMSO). Incubation was performed in 24-well plates, at 37° C. in a DUBNOFF water bath, under low shaking. Each compound was tested at 6 time points, in duplicates (0, 15, 30, 60, 120, and 240 min). At each time point, an aliquot of 120 μl was taken and transferred to a 96-well deep plate. The reaction was stopped with the addition of one volume of 100% acetonitrile plus 0.1% formic acid and the appropriate internal standard. Samples then were centrifuged at 1100×g for 30 min at +4° C. and supernatants were transferred to a new 96-deepwell plate. Samples were evaporated under N2 and reconstituted in H2O/ACN 0.1% formic Acid (98:2). Analysis was performed without a calibration curve (Acquity UPLC-Waters; Sciex API4000). Time 0 was obtained adding acetonitrile before addition of the test compound. Stability was determined based on analysis of disappearance of the compounds as a function of incubation time. Quantification of test compounds was measured as a peak area relative to an internal standard. The elimination constant, k, is calculated by plotting mean disappearance values on a semi-logarithmic scale and fitting with a best fit linear regression. The half-life (t1/2) expressed in hours was derived using Equation 1:
t1/2=ln 2/(−k). Equation 1: […]

Setting [2] is: Diastereoisomer A (upfield shift in 31P NMR), read-out: t1/2 (h) Mouse Hepatocytes Diastereoisomer A (converted).
The mark [3] stands for this setting: Diastereoisomer B, read-out: t1/2 (h) Mouse Hepatocytes Diastereoisomer B.

As to `CC(=O)SCCNC(=O)CCNC(=O)[C@@H]1OP(=O)(OCOC(=O)c2scnc2C)OCC1(C)C` (stereo partly drawn) [R1006, (((4R)-4-((3-((2-(acetylthio)ethyl)amino)-3-oxopropyl)carbamoyl)-5,5-dimethyl-2-oxido-1,3,2-dioxaphosphinan-2-yl)oxy)methyl 4-methylthiazole-5-carboxylate], the fold induction at 50 µM with PANK2−/− IMR32 cells came out at 117. Besides, the half-life at 5 μM in data set [1] (setting [2]) is 0.31 h; in data set [1] (setting [3]), less than 0.25 h.

As to `CC(=O)SCCNC(=O)CCNC(=O)[C@@H]1OP(=O)(OCOC(=O)c2cc(C)nn2C)OCC1(C)C` (stereo partly drawn) [R1007, (((4R)-4-((3-((2-(acetylthio)ethyl)amino)-3-oxopropyl)carbamoyl)-5,5-dimethyl-2-oxido-1,3,2-dioxaphosphinan-2-yl)oxy)methyl 1,3-dimethyl-1H-pyrazole-5-carboxylate], the fold induction at 50 µM in the data set with PANK2−/− IMR32 cells stood at 109. In addition, the half-life at 5 μM in data set [1] (setting [2]) and in data set [1] (setting [3]) was less than 0.25 h throughout.

As usually defined, the fold induction is the ratio of treated to control signal.
